Measurements published in ChEMBL document CHEMBL5674860, “Optimized Dual-Glo Assay to identify co-culture-induced drug vulnerabilities in 3D CRC models” (2024).

How the values were obtained:
Type in all cases: functional, Homo sapiens
Design in all cases: dose or concentration left out as unconfirmed
[1] = system: Colon cancer organoid; assay: Optimized Dual-Glo assay to identify co-culture induced drug vulnerabilities using donated chemical probes and chemogenomics kinase set in O06 CRC organoid and F06 CAF mono and co-culture. […] Cell viability is reported both mono and co-culture models.
[2] = system: Colon cancer organoid; assay: Optimized Dual-Glo assay to identify co-culture induced drug vulnerabilities using donated chemical probes and chemogenomics kinase set in O14 CRC organoid and F14 CAF mono and co-culture. […] Cell viability is reported both mono and co-culture models.
[3] = system: Colon cancer organoid; assay: Optimized Dual-Glo assay to identify co-culture induced drug vulnerabilities using donated chemical probes and chemogenomics kinase set in O20 CRC organoid and F20 CAF mono and co-culture. […] Cell viability is reported both mono and co-culture models.
[4] = Culture type Co-Culture, Transduced with Lucferase2-P2A-EGFP lentivirus
[5] = Culture type Co-Culture, Transduced with Renilla-dsRed lentivirus
[6] = Culture type Mono-Culture, Transduced with Lucferase2-P2A-EGFP lentivirus
[7] = Culture type Mono-Culture, Transduced with Renilla-dsRed lentivirus

Structure (SMILES) | Cell Viability [1, 4] [%] | Cell Viability [1, 5] [%] | Cell Viability [1, 6] [%] | Cell Viability [1, 7] [%] | Cell Viability [2, 4] [%] | Cell Viability [2, 5] [%] | Cell Viability [2, 6] [%] | Cell Viability [2, 7] [%] | Cell Viability [3, 4] [%] | Cell Viability [3, 5] [%] | Cell Viability [3, 6] [%] | Cell Viability [3, 7] [%]
Cc1cc(=O)n(C)c2cc(N3C(=O)CC[C@H](NS(=O)(=O)CC(C)C)[C@H]3c3ccc(Cl)cc3)ccc12 | 117.914 | 167.751 | 110.238 | 116.926 | 75.0892 | 148.008 | 105.721 | 116.483 | 107.11 | 166.434 | 116.867 | 106.138
O=C(Nc1cccnn1)N1CC(C/C=C/c2cncc(Oc3ccc(C(F)(F)F)cn3)n2)C1 | 131.321 | 196.307 | 116.585 | 92.4101 | 84.7499 | 109.288 | 99.5215 | 99.7577 | 97.9448 | 112.944 | 119.523 | 106.69
COc1ccc(CCc2nc3cc(-c4c(C)noc4C)ccc3n2C[C@H](C)N2CCOCC2)cc1Cl | 78.634 | 97.126 | 66.152 | 156.889 | 90.4848 | 144.282 | 124.855 | 138.359 | 95.7417 | 133.846 | 83.4803 | 106.755
Cn1nc(C(F)(F)F)cc1-c1cnc(N2CCc3cc(S(=O)(=O)Nc4c(F)cc(Cl)cc4F)cc(N4CCCC4=O)c32)nc1 [TP-020] | 112.159 | 131.656 | 120.125 | 102.548 | 84.372 | 107.562 | 84.9301 | 79.7114 | 86.7802 | 95.2287 | 142.794 | 105.743
CNC(=O)c1ccccc1Nc1cc(Nc2ccc(N3CCOCC3)cc2OC)ncc1C(F)(F)F [VS-4718] | 52.8737 | 57.2971 | 31.5838 | 48.5863 | 33.8151 | 68.2368 | 15.2403 | 46.526 | 13.8337 | 72.4438 | 12.23 | 46.798
COCCN1CCC(c2cc(CN(C)C(=O)c3cccc(Oc4ccccc4)c3)ccn2)CC1 | 91.2389 | 131.922 | 95.8918 | 124.805 | 94.0691 | 112.751 | 102.019 | 112.74 | 94.1045 | 115.605 | 130.999 | 103.56
CCOc1cc(N2CCC(O)CC2)ccc1Nc1ncc2c(n1)N(C1CCCC1)CCC(=O)N2C | 80.3618 | 151.464 | 49.5621 | 184.932 | 86.8191 | 245.351 | 52.078 | 149.574 | 51.9112 | 144.517 | 36.2832 | 127.288
CCOC(=O)Nc1cc(-c2ccc(C)c(NS(C)(=O)=O)c2)nn2c(C)nnc12 | 112.605 | 266.102 | 81.8905 | 215.442 | 71.1092 | 228.167 | 66.8371 | 176.186 | 38.58 | 177.965 | 39.5437 | 109.867
C=CC(=O)Nc1cccc(C(=O)Nc2ccc(Nc3cc(-c4[nH]c(SC)nc4C)ccn3)cc2)c1 | 87.3077 | 89.5907 | 92.9694 | 99.3546 | 92.8618 | 104.149 | 127.049 | 88.1867 | 175.75 | 71.728 | 133.783 | 92.5554
CN(C(=O)c1ccccc1)c1cc(N(C)c2ccc3c(c2)CCc2ccc(C(=O)NCCN4CCOCC4)cc2C3=O)ccc1F [FM-743] | 67.0526 | 69.6878 | 72.1659 | 109.641 | 83.789 | 122.182 | 115.906 | 98.7995 | 87.5807 | 153.202 | 104.972 | 128.329
CC(=O)C1=C(C)N(c2cccc(C(F)(F)F)c2)C(=O)N[C@@H]1c1ccc(C#N)nc1 [BAY-678] | 128.432 | 162.784 | 110.704 | 89.9312 | 126.5 | 123.101 | 84.3173 | 104.156 | 140.099 | 133.591 | 110.356 | 85.3396
COc1cc2c(cc1NS(=O)(=O)c1ccc(Br)cc1C)n(C)c(=O)n2C | 53.0589 | 146.987 | 78.5311 | 120.075 | 78.4023 | 92.6515 | 95.4962 | 108.084 | 86.3374 | 193.757 | 91.9028 | 113.163
COc1cc2c(NC3CCN(C(C)C)CC3)nc(N3CCC(F)(F)CC3)nc2cc1OCCCN1CCCC1 | 88.0521 | 104.162 | 44.5913 | 47.5732 | 56.1565 | 72.4133 | 84.8802 | 67.5673 | 136.034 | 132.743 | 70.3827 | 53.0002
Cn1c(-c2csc(C3CCN(CC4=NC5N=CC=CC5N4)CC3)n2)nc2ccccc21 (stereo unspecified) [BAY-070] | 29.934 | 49.5381 | 49.5158 | 105.274 | 71.6704 | 82.4795 | 106.637 | 95.1305 | 41.8948 | 84.0468 | 78.1822 | 83.7423
C[C@@H]1CCN(C(=O)CC#N)C[C@@H]1N(C)c1ncnc2[nH]ccc12.O=C(O)CC(O)(CC(=O)O)C(=O)O [TOFACITINIB CITRATE] | 105.115 | 91.9737 | 115.164 | 114.62 | 119.294 | 99.6774 | 102.323 | 98.8919 | 115.032 | 86.9545 | 89.5356 | 81.856
O=C(CNCc1cc2ccccc2[nH]1)N[C@H]1CC[C@@H](c2nc3ccccc3[nH]2)CC1 | 85.8975 | 91.436 | 103.293 | 98.1178 | 97.4401 | 97.7804 | 95.7204 | 104.778 | 100.625 | 124.153 | 84.865 | 96.1375
CC1=C(C#N)C(c2ccc3c(c2)c(NC(=O)c2ccccc2C)nn3C)C(C#N)=C(C)N1 [BAY-974] | 97.6295 | 94.9804 | 90.396 | 95.4639 | 102.224 | 90.7163 | 99.5288 | 100.218 | 105.235 | 128.576 | 108.1 | 107.642
CNc1nc(Nc2cnn([C@H]3CCN(C4COC4)C[C@@H]3F)c2Cl)ncc1C(F)(F)F | 94.4056 | 87.0484 | 128.459 | 108.44 | 116.318 | 104.728 | 169.727 | 102.216 | 199.298 | 86.9942 | 108.189 | 89.737
